Laboratory results reported in patent US9724408B2, “Compositions and methods for activating stimulator of interferon gene-dependent signalling” (ADURO BIOTECH, INC., priority 2013, dated 2017).

How the values were obtained:
[1] = system: 4T1 mammary carcinoma cells; test: 4T1 mammary carcinoma flank tumor model, intratumoral CDN; format: in vivo, BALB/c mice
Experimental: Either CT26 colon carcinoma cells (1×10^5 cells in 100 μL PBS) or 4T1 mammary carcinoma cells (1×10^5 cells in 100 μL PBS) were implanted subcutaneously on the flanks of 6-8 week old female BALB/c mice (8 mice per group). Treatments began when tumors reached a volume of approximately 75 mm^3, which was approximately day 14 post tumor implantation. The compounds Rp, Rp dithio cyclic [A(2′,5′)pA(3′,5′)p] (ML RR-CDA) or Rp, Rp dithio cyclic [G(2′,5′)pG(3′,5′)p] (ML RR-CDG) compounds (25 μg in a total volume of 40 μL HBSS), or HBSS vehicle control, and Rp, Rp dithio cyclic [A(2′,5′)pA(3′,5′)p] (ML RR-CDA) (50 μg in a total volume of 40 μL HBSS) or HBSS vehicle control, were administered by subcutaneous injection into the center of the tumor using a 27 gauge needle. Injections were repeated every three days, for a total of three intratumoral injections.
To determine whether CDN derivative molecules induce effective and durable anti-tumor immunity in an alternate tumor model, 6-8 week old female BALB/c mice (8 mice per group) were implanted with 4T1 mammary carcinoma cells (1×10^5 cells in 100 μL PBS). […] On day 35 post tumor implantation, surviving mice and age-matched naïve control mice were implanted on the contralateral flank with either CT26 or 4T1 (both 1×10^5 cells in 100 μL PBS) tumor cells (4 mice per group), and monitored for tumor growth.

[2] = system: natural killer (NK) cells, CD4+ and CD8+ T cells; test: Surface CD69 upregulation on lymphocytes after subcutaneous CDN (FACS); format: in vivo, BALB/c mice; conditions: 50, 5 and 0.5 μM in 100 μL, base of the tail, 24 hours, FIG. 11
Experimental: To determine the relative ability of the derivative molecules to activate immune responses, CDN compounds were administered to 6-8 week old female BALB/c mice (in a total volume of 100 μL in HBSS) at doses of 50, 5 and 0.5 μM by subcutaneous injection into the base of the tail. Mice were assessed 24 hours later for lymphocyte immune cell activation by fluorescent activated cell sorting (FACS) for upregulation of surface CD69 expression on natural killer (NK) cells, CD4+ and CD8+ T cells, as compared to IgG1 isotype controls.

[3] = system: 4T1 mammary carcinoma cells; test: Abscopal model, 4T1 tumors on contralateral flanks, primary tumor injected; format: in vivo, BALB/c mice; conditions: 50 μg into the primary tumor only, three injections
Source text: The STING-dependent induction of tumor-specific T cell immunity protects animals against subsequent challenge with the autologous tumor. It will be apparent to those skilled in the art that advanced cancer is metastatic, and that to be effective, therapies must inhibit outgrowth of distal masses. Treatment of one or selected lesions that inhibits tumor outgrowth of distal untreated tumor masses is known as an abscopal effect. To test whether IT injection of a selected tumor with synthetic CDN derivative molecules inhibited the tumor outgrowth of a distal untreated tumor, (A) CT26 colon carcinoma cells (1×10^5 cells in 100 μL PBS) and (B) 4T1 mammary carcinoma cells (1×10^5 cells in 100 μL PBS) were implanted subcutaneously on the contralateral flanks of 6-8 week old female BALB/c mice (8 mice per group). Treatments began when tumors reached a volume of approximately 75 mm^3, on day 13 post tumor implantation. The Rp, Rp dithio cyclic [A(2′,5′)pA(3′,5′)p] (ML RR-CDA) compound (50 μg in a total volume of 40 μL HBSS), or HBSS vehicle control, was administered by subcutaneous injection into the center of the primary (right side) tumor only using a 27 gauge needle. Injections were repeated every three days, for a total of three intratumoral injections.

AH1 peptide = test: AH1-specific IFN-γ ELISpot of PBMCs from treated CT26-bearing mice; format: in vivo, BALB/c mice; conditions: day 18 post tumor implantation, 1 μM AH1 peptide, P=0.003, FIG. 21B
Experimental: To determine whether the synthetic derivative CDN molecules elicit durable and effective anti-tumor T-cell immunity, 6-8 week old female BALB/c mice (8 mice per group) were implanted with CT26 colon carcinoma cells (1×10^5 cells in 100 μL PBS). Mice were treated with Rp, Rp dithio cyclic [A(2′,5′)pA(3′,5′)p] (ML RR-CDA) compound ([…] in a total volume of 40 μL HBSS) or HBSS vehicle control, and tumor growth was monitored as per previous example. Mice were bled on day 18 post tumor implantation and PBMCs were isolated by Ficoll gradient (Miltenyi Biotech). 5×10^4 PBMCs were stimulated overnight in an IFNγ ELISpot assay with media alone (unstimulated), or with 1 μM of the endogenous H-2 L^d-restricted tumor rejection antigen AH1 peptide in the presence of 1×10^5 naïve splenocytes as feeder cells. IFN-γ ELISpot plates were developed and quantified using a CTL plate reader and ImmunoSpot software. On day 55 post tumor implantation, surviving mice and age-matched naïve control mice were implanted on the contralateral flank with either CT26 or 4T1 (both 1×10^5 cells in 100 μL PBS) tumor cells (4 mice per group), and monitored for tumor growth.

[4] = system: human STING variants (WT, REF, HAQ, AQ and Q); test: IFNβ-LUC reporter in HEK293T cells expressing human STING alleles; format: cell-based; conditions: 10 μM, digitonin permeabilization, 6 hrs, FIG. 14
Experimental: MSCV2.2 plasmids encoding hSTING(REF)-GFP, hSTING(WT)-GFP, hSTING(HAQ)-GFP, hSTING(Q)-GFP and mSTING(WT)-GFP were obtained from the Vance Laboratory at UC Berkeley. hSTING(AQ)-GFP was derived from hSTING(Q)-GFP using a QuickChange Site-Directed Mutagenesis kit (Stratagene). […] 1×10^4 HEK293T STING cells were seeded in 96-well plates and transiently transfected (using Lipofectamine 2000) with 50 ng of a human IFN-β reporter plasmid (pLuc-IFN-β) expressing the human IFN-β promoter upstream of a luciferase reporter and 10 ng of TK-renilla for normalization. 24 hours later, cells were stimulated with native and synthetic CDN derivative molecules using digitonin permeabalization to ensure uniform uptake. Each STING cell line was stimulated with 10 μM of cyclic [G(3′,5′)pA(3′,5′)p] (cGAMP), cyclic [G(2′,5′)pA(3′,5′)p] […] (RR-CDA), cyclic [A(2′,5′)pA(3′,5′)p] […] (RR-CDG), cyclic [G(2′,5′)pG(3′,5′)p] […] (ML RR-CDG) in 25 ul digitonin buffer (50 mM HEPES, 100 mM KCL, 3 mM MgCl2, 0.1 mM DTT, 85 mM Sucrose, 0.2% BSA, 1 mM ATP, 0.1 mM GTP, 10 ug/ml digitonin). After 20 min, the stimulation mixtures were removed and 200 ul of standard RPMI media was added. After stimulation for 6 hrs, cell lysates were prepared and reporter gene activity measured using the Dual Luciferase Assay System (Promega) on a Spectramax M3 luminometer.

Row | SMILES | inhibition of tumor growth of established 4T1 mammary carcinomas ([1]; 50 μg intratumoral, FIG. 22A) | inhibition of tumor growth of established 4T1 mammary tumors ([1]; intratumoral, every three days, three injections, 8 mice per group, FIG. 19C) | immune cell activation (surface CD69 on NK, CD4+ and CD8+ T cells) [2] | inhibition of the treated primary tumor, 4T1 ([3]; FIG. 23B) | outgrowth of the contralateral (untreated) tumor, 4T1 ([3]; P=0.0019, FIG. 23B) | IFN-γ production of PBMCs in response to AH1 peptide (AH1 peptide) | IFNβ reporter activity, all human STING alleles [4]
1 | Nc1ncnc2c1ncn2[C@@H]1O[C@@H]2COP(O)(=S)O[C@@H]3C(O)[C@@H](COP(O)(=S)O[C@H]2[C@H]1O)O[C@H]3n1cnc2c(N)ncnc21 (stereo partly drawn) [ML RR-CDA, dithio-[RP, RP]-cyclic-[A(2′,5′)pA(3′,5′)p]] | completely inhibited tumor growth of established 4T1 mammary carcinomas | completely inhibited tumor growth of all established 4T1 mammary tumors | induced NK and T cell activation, although to a lesser extent than the ML RR-CDG molecule | complete inhibition of the treated primary tumor | significantly inhibited | significantly higher IFN-γ in response to AH1 peptide stimulation, as compared to the HBSS-treated control group | strongly induce IFNβ reporter activity by all human STING alleles
2 | Nc1nc2c(ncn2[C@@H]2O[C@@H]3CO[P@@](O)(=S)O[C@@H]4[C@H](O)[C@@H](CO[P@@](O)(=S)O[C@H]3[C@H]2O)O[C@H]4n2cnc3c(=O)[nH]c(N)nc32)c(=O)[nH]1 [ML RR-CDG, dithio-[RP,RP]-cyclic-[G(2′,5′)pG(3′,5′)p]] | – | – | potent immune activation of NK and T cells in a dose-dependent manner | – | – | – | strongly induce IFNβ reporter activity by all human STING alleles
